Assay [1] relates to HEK-293 cells. As to the kind of experiment: HEK-293 cytotoxicity detection (CellTiter-Glo). The format is cell-based. The settings on record: Homo sapiens, 72 h, 72 h incubation, CellTiter-Glo luminescence, read-out: HEK293. The method in brief: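 HEK-293 cells exposed 72 h to 8 compounds doses (4-fold dilutions, top stock 5 mM at 500×) in 0.2% DMSO. Viability by CellTiter-Glo luminescence; inhibition normalised to DMSO high control and low control, IC50 from four-parameter curve fit.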
For orientation: ATP-based viability assays read luminescence as a measure of living cells.

For assay [2], the target named is BTK (Homo sapiens, UniProt Q06187). In words: BTK cell degradation in TMD-8 cells, HTRF assay. It is filed as cell-based. More on the design: endogenous in cells; host or cells: TMD-8 cells. Conditions: 6 h treatment, IC50 (DC50) of BTK degradation. The essentials: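 TMD-8 cells treated 6 h with 8-dose series (6-fold dilutions, 0.2% DMSO final), then lysed and BTK quantified by HTRF (337/665/620 nm) after overnight antibody incubation at room temperature. Degradation normalized to DMSO high and low controls; DC50 and Dmax from four-parameter fit.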
Chain of BTK (Q06187 whole entry): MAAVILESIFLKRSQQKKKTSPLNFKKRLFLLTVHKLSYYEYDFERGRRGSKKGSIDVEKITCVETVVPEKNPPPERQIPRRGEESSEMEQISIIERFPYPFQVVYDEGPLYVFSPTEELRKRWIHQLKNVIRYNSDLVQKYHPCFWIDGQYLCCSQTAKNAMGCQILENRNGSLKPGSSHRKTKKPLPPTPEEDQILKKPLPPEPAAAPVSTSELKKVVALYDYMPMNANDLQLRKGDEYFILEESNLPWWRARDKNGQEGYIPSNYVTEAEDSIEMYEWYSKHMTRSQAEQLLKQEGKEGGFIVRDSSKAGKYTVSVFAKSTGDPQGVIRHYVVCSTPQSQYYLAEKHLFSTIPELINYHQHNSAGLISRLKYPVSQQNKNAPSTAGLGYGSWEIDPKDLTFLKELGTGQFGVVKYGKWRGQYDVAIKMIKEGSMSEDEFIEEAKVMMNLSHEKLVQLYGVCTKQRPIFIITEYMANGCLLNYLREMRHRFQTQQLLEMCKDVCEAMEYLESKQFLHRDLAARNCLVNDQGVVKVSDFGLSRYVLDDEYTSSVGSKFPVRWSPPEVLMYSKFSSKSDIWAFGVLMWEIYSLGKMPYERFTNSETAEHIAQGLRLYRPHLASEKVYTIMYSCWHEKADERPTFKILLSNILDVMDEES

Structures are written as SMILES.

The DC50 is the concentration at which degradation of the target reaches its halfway point. A lower DC50 goes with degradation at low concentration. With `Cc1ccnc(NC(=O)c2ccc(-c3nn4c(c3C(N)=O)Nc3ccc(N5CCN(CC6CCN(c7ccc(N8CCC(=O)NC8=O)cc7)CC6)CC5)cc3CC4)c(F)c2C)n1` [Example B43, 7-(4-((1-(4-(2,4-dioxotetrahydropyrimidin-1(2H)-yl)phenyl)piperidin-4-yl)methyl)piperazin-1-yl)-2-(2-fluoro-3-methyl-4-((4-methylpyrimidin-2-yl)carbamoyl)phenyl)-9,10-dihydro-4H-benzo[d]pyrazolo[1,5-a][1,3]diazepine-3-carboxamide], in assay [1], the IC50 is over 10000 nM. For the same compound, half-maximal degradation in assay [2] (DC50) was put at 0.543 nM.

Take `Cc1cc(C)nc(NC(=O)c2ccc(-c3nn4c(c3C(N)=O)Nc3ccc(N5CCN(CC6CCN(c7ccc(N8CCC(=O)NC8=O)cc7)CC6)CC5)cc3CC4)cc2C)c1` [Example B23, 2-(4-((4,6-dimethylpyridin-2-yl)carbamoyl)-3-methylphenyl)-7-(4-((1-(4-(2,4-dioxotetrahydropyrimidin-1(2H1)-yl)phenyl)piperidin-4-yl)methyl)piperazin-1-yl)-9,10-dihydro-4H-benzo[d]pyrazolo[1,5a][1,3]diazepine-3-carboxamide]: in assay [1], the IC50 was over 10000 nM. In assay [2], this compound showed a DC50 of 0.594 nM.

Take `NC(=O)c1c(-c2ccc(Oc3ccccc3)cc2)nn2c1Nc1ccc(CCC3CCN(c4ccc(NC5CCC(=O)NC5=O)cc4)CC3)cc1CC2` (centres unmarked) [Example A26, 7-(2-(1-(4-((2,6-dioxopiperidin-3-yl)amino)phenyl)piperidin-4-yl)ethyl)-2-(4-phenoxyphenyl)-9,10-dihydro-4H-benzo[d]pyrazolo[1,5-a][1,3] diazepine-3-carboxamide]: the IC50 in assay [1] was determined as 283 nM. In assay [2], this compound registered a 50% degradation concentration (DC50) of 16 nM.

For the compound `Cc1c(C(=O)Nc2cn(C)cn2)ccc(-c2nn3c(c2C(N)=O)Nc2ccc(N4CCN(CCc5cc(F)c(C6CCC(=O)NC6=O)c(F)c5)CC4)cc2CC3)c1F` (centres unmarked) [Example B88, 7-(4-(4-(2,6-dioxopiperidin-3-yl)-3,5-difluorophenethyl)piperazin-1-yl)-2-(2-fluoro-3-methyl-4-((1-methyl-1H-imidazol-4-yl)carbamoyl)phenyl)-9,10-dihydro-4H-benzo[d]pyrazolo[1,5-a][1,3]diazepine-3-carboxamide], in assay [1], the IC50 is over 10000 nM. The compound further yielded a DC50 in assay [2] of 1.63 nM.

For the compound `COc1ccc(C2CC2)cc1C(=O)NCc1ccc(-c2nn3c(c2C(N)=O)Nc2ccc(N4CCN(CC5CCN(c6ccc(N7CCC(=O)NC7=O)cc6)CC5)CC4)cc2CC3)cc1` [Example C29, 2-(4-((5-cyclopropyl-2-methoxybenzamido)methyl)phenyl)-7-(4-((1-(4-(2,4-dioxotetrahydropyrimidin-1(2H)-yl)phenyl)piperidin-4-yl)methyl)piperazin-1-yl)-9,10-dihydro-4H-benzo[d]pyrazolo[1,5-a][1,3]diazepine-3-carboxamide], in assay [1], the IC50 was over 10000 nM. The same compound showed a DC50 in assay [2] of 1.56 nM.

As for `NC(=O)c1c(-c2ccc(Oc3ccccc3)cc2)nn2c1Nc1ccc(N3CCN(CC4CCN(c5ccc(N6CCC(=O)NC6=O)cc5)CC4)CC3)cc1CC2` [Example A21, 7-(4-((1-(4-(2,4-dioxotetrahydropyrimidin-1(2H)-yl)phenyl)piperidin-4-yl)methyl)piperazin-1-yl)-2-(4-phenoxyphenyl)-9,10-dihydro-4H-benzo[d]pyrazolo[1,5-a][1,3]diazepine-3-carboxamide], in assay [1], the IC50 is 62.1 nM. Further, in assay [2], the DC50 is 1.51 nM.

Regarding `Cc1cccc(NC(=O)c2ncc(-c3nn4c(c3C(N)=O)Nc3ccc(N5CCN(CC6CCN(c7ccc(N8CCC(=O)NC8=O)cc7)CC6)CC5)cc3CC4)cc2C)n1` [Example B32, 7-(4-((1-(4-(2,4-dioxotetrahydropyrimidin-1(2H)-yl)phenyl)piperidin-4-yl)methyl)piperazin-1-yl)-2-(5-methyl-6-((6-methylpyridin-2-yl)carbamoyl)pyridin-3-yl)-9,10-dihydro-4H-benzo[d]pyrazolo[1,5-a][1,3]diazepine-3-carboxamide], the IC50 in assay [1] amounted to 332 nM. This compound gave a DC50 in assay [2] of 8.86 nM.

Consider `NC(=O)c1c(-c2ccc(C(=O)Nc3nccc(C(F)(F)F)c3F)cc2)nn2c1Nc1ccc(N3CCN(CC4CCN(c5ccc(N6CCC(=O)NC6=O)cc5)CC4)CC3)cc1CC2` [Example B13, 7-(4-((1-(4-(2,4-dioxotetrahydropyrimidin-1(2H)-yl)phenyl)piperidin-4-yl)methyl)piperazin-1-yl)-2-(4-((3-fluoro-4-(trifluoromethyl)pyridin-2-yl)carbamoyl)phenyl)-9,10-dihydro-4H-benzo[d]pyrazolo[1,5-a][1,3]diazepine-3-carboxamide], for which the IC50 in assay [1] was determined as 180 nM. The compound also returned a DC50 in assay [2] of 0.408 nM.

As to `COc1cc(C(=O)Nc2cc(C(F)(F)F)ccn2)ccc1-c1nn2c(c1C(N)=O)Nc1ccc(N3CCN(CC4CCN(c5ccc(N6CCC(=O)NC6=O)cc5)CC4)CC3)cc1CC2` [Example B27, 7-(4-((1-(4-(2,4-dioxotetrahydropyrimidin-1(2H)-yl)phenyl)piperidin-4-yl)methyl)piperazin-1-yl)-2-(2-methoxy-4-((4-(trifluoromethyl)pyridin-2-yl)carbamoyl)phenyl)-9,10-dihydro-4H-benzo[d]pyrazolo[1,5-a][1,3]diazepine-3-carboxamide], the IC50 in assay [1] is over 10000 nM. Besides, it took 0.849 nM to reach half-maximal degradation in assay [2] (DC50).

On to `CC(Nc1cc(C(F)(F)F)ccn1)c1ccc(-c2nn3c(c2C(N)=O)Nc2ccc(N4CCN(CC5CCN(c6ccc(N7CCC(=O)NC7=O)cc6)CC5)CC4)cc2CC3)cc1` (centres unmarked) [Example C15, 7-(4-((1-(4-(2,4-dioxotetrahydropyrimidin-1(2H)-yl)phenyl)piperidin-4-yl)methyl)piperazin-1-yl)-2-(4-(1-((4-(trifluoromethyl)pyridin-2-yl)amino)ethyl)phenyl)-9,10-dihydro-4H-benzo[d]pyrazolo[1,5-a][1,3]diazepine-3-carboxamide], for which the IC50 in assay [1] was 8850 nM. Also, it took 14.6 nM to reach half-maximal degradation in assay [2] (DC50).

On to `Cc1c(C(=O)Nc2cn(C)cn2)ccc(-c2nn3c(c2C(N)=O)Nc2ccc(N4CCN(CCc5cccc6c5oc(=O)n6C5CCC(=O)NC5=O)CC4)cc2CC3)c1F` (centres unmarked) [Example B90, 7-(4-(2-(3-(2,6-dioxopiperidin-3-yl)-2-oxo-2,3-dihydrobenzo[d]oxazol-7-yl)ethyl)piperazin-1-yl)-2-(2-fluoro-3-methyl-4-((1-methyl-1H-imidazol-4-yl)carbamoyl)phenyl)-9,10-dihydro-4H-benzo[d]pyrazolo[1,5-a][1,3]diazepine-3-carboxamide], for which the IC50 in assay [1] was over 10000 nM. For the same compound, it took 0.706 nM to reach half-maximal degradation in assay [2] (DC50).

Regarding `NC(=O)c1c(-c2ccc(C(=O)Nc3cc(C(F)(F)F)ccn3)c(F)c2)nn2c1Nc1ccc(N3CCN(CC4CCN(c5ccc(N6CCC(=O)NC6=O)cc5)CC4)CC3)cc1CC2` [Example B8, 7-(4-((1-(4-(2,4-dioxotetrahydropyrimidin-1(2H)-yl)phenyl)piperidin-4-yl)methyl)piperazin-1-yl)-2-(3-fluoro-4-((4-(trifluoromethyl)pyridin-2-yl)carbamoyl)phenyl)-9,10-dihydro-4H-benzo[d]pyrazolo[1,5-a][1,3]diazepine-3-carboxamide], the IC50 in assay [1] was determined as 301 nM. The compound further registered a DC50 in assay [2] of 1.82 nM.

Turning to `COc1ccc(C(F)(F)F)cc1C(=O)NCc1ccc(-c2nn3c(c2C(N)=O)Nc2ccc(N4CCN(CC5CCN(c6ccc(N7CCC(=O)NC7=O)cc6)CC5)CC4)cc2CC3)cc1F` [Example C26, 7-(4-((1-(4-(2,4-dioxotetrahydropyrimidin-1(2H)-yl)phenyl)piperidin-4-yl)methyl)piperazin-1-yl)-2-(3-fluoro-4-((2-methoxy-5-(trifluoromethyl)benzamido)methyl)phenyl)-9,10-dihydro-4H-benzo[d]pyrazolo[1,5-a][1,3]diazepine-3-carboxamide], in assay [1], the IC50 was determined as 108 nM. This compound showed a DC50 in assay [2] of 1.79 nM.

For the compound `Cc1cccc(NC(=O)c2ccc(-c3nn4c(c3C(N)=O)Nc3ccc(N5CCN(C6CC(c7ccc(N8CCC(=O)NC8=O)cc7)C6)CC5)cc3CC4)c(F)c2C)n1` (centres unmarked) [Example B64, 7-(4-(3-(4-(2,4-dioxotetrahydropyrimidin-1(2H)-yl)phenyl)cyclobutyl)piperazin-1-yl)-2-(2-fluoro-3-methyl-4-((6-methylpyridin-2-yl)carbamoyl)phenyl)-9,10-dihydro-4H-benzo[d]pyrazolo[1,5-a][1,3]diazepine-3-carboxamide], in assay [1], the IC50 is over 10000 nM. The DC50 in assay [2] worked out at 4.85 nM.

With `Cc1cc(N2CCC(CN3CCN(c4ccc5c(c4)CCn4nc(-c6ccc(C(=O)Nc7cc(C(F)(F)F)ccn7)cc6)c(C(N)=O)c4N5)CC3)CC2)ccc1N1CCC(=O)NC1=O` [Example B3, 7-(4-((1-(4-(2,4-dioxotetrahydropyrimidin-1(2H)-yl)-3-methylphenyl)piperidin-4-yl)methyl)piperazin-1-yl)-2-(4-((4-(trifluoromethyl)pyridin-2-yl)carbamoyl)phenyl)-9,10-dihydro-4H-benzo[d]pyrazolo[1,5-a][1,3]diazepine-3-carboxamide], the IC50 in assay [1] stood at 88.8 nM. Besides, in assay [2], the DC50 was 0.534 nM.

Regarding `Cc1cccc(NC(=O)c2ccc(-c3nn4c(c3C(N)=O)Nc3ccc(N5CCN(CC6CCN(c7ccc(N8CCC(=O)NC8=O)cc7)CC6)CC5)cc3CC4)cc2C)n1` [Example B21, 7-(4-((1-(4-(2,4-dioxotetrahydropyrimidin-1(2H)-yl)phenyl)piperidin-4-yl)methyl)piperazin-1-yl)-2-(3-methyl-4-((6-methylpyridin-2-yl)carbamoyl)phenyl)-9,10-dihydro-4H-benzo[d]pyrazolo[1,5-a][1,3]diazepine-3-carboxamide], in assay [1], the IC50 is over 10000 nM. For the same compound, half-maximal degradation in assay [2] (DC50) was put at 0.602 nM.

The record behind these values is patent US20240246977A1, “DEGRADATION OF BRUTON'S TYROSINE KINASE (BTK) BY CONJUGATION OF BTK INHIBITORS WITH E3 LIGASE LIGAND AND METHOD OF USE” (BeiGene Switzerland GmbH, priority 2021, published 2024).
